The source made the active and inactive calls. The rule behind the calls is not given here.
What was measured:
[1] = tested on: Leishmania infantum; experiment: Antileishmanial activity against Leishmania infantum BCN150 promastigotes harboring iRFP gene by infrared imaging method; format: functional
[2] = Cytotoxicity against BALB/c mouse splenocytes assessed as cell viability after 48 hrs by alamar blue assay; format: toxicity, Splenocyte
[3] = tested on: Leishmania infantum; experiment: Antileishmanial activity against Leishmania infantum amastigotes harboring iRFP gene infected BALB/c mouse splenocytes after 48 hrs by infrared imaging method; format: functional
[4] = Selectivity index, ratio of CC50 for BALB/c mouse splenocytes to IC50 for Leishmania infantum amastigotes harboring iRFP gene infected BALB/c mouse splenocytes; format: functional
[5] = tested on: Leishmania infantum; experiment: (§1) Inhibition of Leishmania infantum recombinant topoisomerase 1B expressed in topoisomerase 1B- deficient Saccharomyces cerevisiae EKY3 assessed as decrease in relaxation of negatively supercoiled pSK DNA at 100 uM preincubated for 5 mins followed by supercoiled pSK DNA addition measured after 5 mins by aggarose gel electrophoresis
[6] = tested on: Leishmania infantum; experiment: as §1, with “for 15” for “for 5”
[7] = as §1, with “DNA” for “DNA at 100 uM”, “for 15” for “for 5”
[8] = organism: Homo sapiens; experiment: as §1, with “human” for “Leishmania infantum”
[9] = organism: Homo sapiens; experiment: as §1, with “of human” for “of Leishmania infantum”, “for 15” for “for 5”
[10] = as §1, with “of human” for “of Leishmania infantum”, “DNA” for “DNA at 100 uM”, “for 15” for “for 5”
[11] = tested on: Leishmania infantum; experiment: as §1, with “for 1 min” for “for 5 mins”
[12] = organism: Homo sapiens; experiment: as §1, with “of human” for “of Leishmania infantum”, “for 1 min” for “for 5 mins”

| Compound | IC50 [1] [µM] | CC50 at 48 h [2] [µM] | IC50 [3] [µM] | Ratio CC50/IC50 [4] | inhibition [5] | inhibition [6] | IC50 [7] [µM] | inhibition [8] | inhibition [9] | IC50 [10] [µM] | inhibition [11] | inhibition [12] |
| --- | --- | --- | --- | --- | --- | --- | --- | --- | --- | --- | --- | --- |
| c1ccc2c(c1)Cc1c(-c3ccncc3)nc3cccnc3c1-2 | 33.9 | 19.9 |  |  |  |  |  |  |  |  |  |  |
| c1ccc2c(c1)C[C@@H]1[C@H]2c2ncccc2N[C@@H]1c1ccncc1 (relative stereo) | 82.5 | 94.6 | 65.2 | 1.45 |  |  |  |  |  |  |  |  |
| CSc1ccc(-c2nc3cccnc3c3c2Cc2ccccc2-3)cc1 | 75.1 | 80.9 | 58.1 | 1.39 |  |  |  |  |  |  |  |  |
| FC(F)(F)c1ccc([C@H]2Nc3cccnc3[C@H]3c4ccccc4C[C@H]32)cc1 (relative stereo) | 6.1 | 4.6 |  |  | Active | Active | 60.6 | Active | Active | 22.4 |  |  |
| COc1cccc([C@H]2Nc3cccnc3[C@H]3c4ccccc4C[C@H]32)c1 (relative stereo) | 5.4 | 35.8 | 0.54 | 66.3 | Active |  | 21.8 |  |  |  | Active |  |
| Fc1ccc(-c2nc3cccnc3c3c2Cc2ccccc2-3)c(F)c1 |  | 76.9 | 6.07 | 12.7 |  |  |  |  |  |  |  |  |
| Cc1ccc(-c2nc3cccnc3c3c2Cc2ccccc2-3)cc1 | 69.4 | 68.2 | 58.3 | 1.17 |  |  |  |  |  |  |  |  |
| CCOC(=O)[C@H]1Nc2cccnc2[C@H]2c3ccccc3C[C@H]21 (relative stereo) | 90.8 | > 100 | 78.5 | >1.27 |  |  |  |  |  |  |  |  |
| CCOC(=O)c1nc2cccnc2c2c1Cc1ccccc1-2 | 33.3 | 59.4 | 25.1 | 2.4 |  |  |  |  |  |  |  |  |
| Fc1ccc(-c2nc3cccnc3c3c2Cc2ccccc2-3)cc1 | 34.9 | 50.5 | 0.74 | 68.2 | Active | Active | 14.7 | Active |  | 87.7 | Active | Active |
| COc1cccc(-c2nc3cccnc3c3c2Cc2ccccc2-3)c1 | > 100 | > 100 | 93.3 | >1.07 | Active | Active | 29.5 |  |  |  | Active |  |
| Fc1ccc([C@H]2Nc3cccnc3[C@H]3c4ccccc4C[C@H]32)cc1 (relative stereo) | 9.8 | 57.9 | 2.97 | 19.5 | Active | Active | 49 |  |  |  |  |  |
| c1ccc(-c2nc3cccnc3c3c2Cc2ccccc2-3)cc1 | 70.1 | 90.2 | 63.3 | 1.43 |  |  |  |  |  |  |  |  |
| Fc1ccc([C@H]2Nc3cccnc3[C@H]3c4ccccc4C[C@H]32)c(F)c1 (relative stereo) | 3.7 | 32.1 | 0.67 | 47.9 | Active |  | 41.8 |  |  |  | Active |  |
| C[C@H]1Nc2cccnc2[C@H]2c3ccccc3C[C@H]21 (relative stereo) | > 100 | > 100 | 89.4 | >1.12 |  |  |  |  |  |  |  |  |
| O=[N+]([O-])c1ccc(-c2nc3cccnc3c3c2Cc2ccccc2-3)cc1 | > 100 | 88.1 | 68.3 | 1.29 | Active | Active | 42.3 | Active | Active | 31.6 | Active | Active |
| Fc1ccc(-c2nc3cccnc3c3c2Cc2ccccc2-3)cc1F | 86.1 | 74.2 | 78.2 | 0.95 |  |  |  |  |  |  |  |  |
| COc1ccc(-c2nc3cccnc3c3c2Cc2ccccc2-3)cc1 |  | 116 | 5.8 | 20.1 | Active | Active | 14.1 |  |  |  | Active |  |
| FC(F)(F)c1ccc(-c2nc3cccnc3c3c2Cc2ccccc2-3)cc1 | 84.7 | 126 | 3.35 | 37.6 | Active | Active | 23.6 | Active | Active | 27.4 | Active | Active |
| c1ccc2c(c1)Cc1c(-c3ccc4ccccc4c3)nc3cccnc3c1-2 | 34.6 | 75.8 | 11.9 | 6.4 | Active | Active | 28.1 | Active | Active | 83.4 | Active | Active |
| CC[C@@]1(O)C(=O)OCc2c1cc1n(c2=O)Cc2cc3ccccc3nc2-1 [CAMPTOTHECIN] | 1.12 | 0.62 | 0.03 | 20.7 |  |  |  |  |  |  | Active | Active |
| Fc1cccc([C@H]2Nc3cccnc3[C@H]3c4ccccc4C[C@H]32)c1 (relative stereo) | 89.9 | 85.3 | 94.7 | 0.9 |  |  |  |  |  |  |  |  |
| c1ccc([C@H]2Nc3cccnc3[C@H]3c4ccccc4C[C@H]32)cc1 | > 100 | 94.3 | 65.1 | 1.45 | Active | Active | 45.2 | Active |  | 46.5 |  | Active |
| O=[N+]([O-])c1ccc([C@H]2Nc3cccnc3[C@H]3c4ccccc4C[C@H]32)cc1 (relative stereo) | > 100 | > 100 | 91.3 | >1.09 | Active | Active | > 100 | Active |  | 10.7 |  | Active |
| C[C@@H]1[C@H](O)[C@@H](C)/C=C/C=C/C=C/C=C/C=C/C=C/C=C/[C@H](O[C@@H]2O[C@H](C)[C@@H](O)[C@H](N)[C@@H]2O)C[C@@H]2O[C@](O)(C[C@@H](O)C[C@@H](O)[C@H](O)CC[C@@H](O)C[C@@H](O)CC(=O)O[C@H]1C)C[C@H](O)[C@H]2C(=O)O [AMPHOTERICIN B] | 0.77 | > 20 | 0.32 | >62.5 |  |  |  |  |  |  |  |  |
| Fc1ccc([C@H]2Nc3cccnc3[C@H]3c4ccccc4C[C@H]32)cc1F (relative stereo) | 86.8 | 77.5 | 76.2 | 1.02 |  |  |  | Active |  | 24.4 |  | Active |
